One data set has as its target T1, PDI A1 (Homo sapiens, UniProt P07237).
T1 construct: purchased Mybiosource; host or cells: E. coli
The data set is described as follows: Insulin turbidometric assay, inhibition of PDI A1. Format: biochemical. Conditions: insulin reduction, turbidity at 650 nm, 60 min incubation at 37° C.; read-out: Inhibition of PDI A1 (EC 50). Put shortly: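 E. coli-expressed recombinant PDIA1 (10 ug/ml) preincubated with compound 60 min at 37 °C in phosphate buffer pH 7.6, 1 mM EDTA, DTT. Reaction started with insulin (0.15 mM final) and DTT (0.174 mM final). Insulin-reduction turbidity recorded at 650 nm over 120 s against PDI-free reference.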

The test system of data set [1] is HT-29. The data set is described as follows: Caspase-3/7 activity assay. Format: cell-based, human. Particulars: after 24 and 48 h of incubation; compared to control. As for the experimental part:
(§1) Caspase-3/7 activity assay has been performed as previously described (Milczarek M et al., 2015) after 24 and 48 h of incubation with disclosed compounds. Compounds were tested in triplicate in a single experiment and each experiment was repeated three times independently. Results were normalized to the protein content using the SRB method and reported as mean relative caspase-3/7 activity compared to the control sample ± SD.

Data set [2] deals with Caco-2. The data set is described as follows: Caspase-3/7 activity assay. Format: cell-based, human. Conditions: after 48 h treatment; compared to control. As for the experimental part: as §1
The subject of data set [3] is HT-29. The data set is described as follows: Sulforhodamine B antiproliferative assay, 72 h. Format: cell-based, human. Particulars: Homo sapiens, HT-29; normal (21% of oxygen), 72-hour exposition. In outline:
(§2)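 Cells at 10^5 cells/mL were given four concentrations within 0.1-100 ug/mL for 72 h at 37° C., under 21% O2 (normal) or <1% O2 (hypoxia). Growth read by sulforhodamine B staining after TCA fixation (A540); MTT (A570) was used for estradiol (200 nM) runs. Mean IC50 ± SD from ≥3 independent triplicate experiments.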

The test system of data set [4] is MDA-MB-231. The data set is described as follows: Sulforhodamine B antiproliferative assay, 72 h, normal and hypoxia. The class given is cell-based, human. Particulars: Homo sapiens, MDA-MB-231, 72-hour exposition. Put shortly: as §2
Data set [5] has as its system MCF-7. The description is as above. Format: cell-based, human. Conditions: Homo sapiens, MCF7; hypoxia (<1% of oxygen), 72-hour exposition; read-out: IC50 [µg/ml] MCF-7 hypoxia. Put shortly: as §2
In data set [6] the test system is MDA-MB-231. The data set is described as follows: MTT antiproliferative assay, 72 h, with or without estradiol. Format: cell-based, human. Conditions: Homo sapiens, MDA-MB-231, 72 hours exposition, MTT. As to the method: (§3) Anticancer activity of PDI A1-inhibitors has been also tested in vitro in antiproliferative essay in normoxic and hypoxic conditions as well in estrogen-stimulated cancer cells. In the experiment, cells were seeded on 96-well plates (Sarstedt, Germany) in appropriate culture medium at a density of 10^5 cells/mL 24 h before adding the tested compounds. Cells were treated with each compound in four concentrations in the range 0.1-100 ug/mL. […] After 72 h of compound treatment at 37° C., 5 % CO2 humid atmosphere and in wo different oxygen level conditions: 21% - normal and <1% - hypoxia. In some experiments, the MDA-MB-231 and MCF-7 cells were seeded with or without 200 nM estradiol and after 24 h the tested compounds were added. A previously described sulforhodamine B antiproliferative assay was used with minor modifications (Skehan P et al., 1990). Briefly, cells were fixed with 50 µL/well of 50% (w/v) trichloroacetic acid (Avantor Performance Materials, Gliwice, Poland). After 1 h incubation, plates were washed several times with tap water and 50 µL of 0.4% (w/v) solution of sulforhodamine B (Sigma-Aldrich, Germany) in 1% (v/v) acetic acid (Avantor Performance Materials, Gliwice, Poland) was added to each well. After 30 min incubation at room temperature, unbound dye was washed out with 1% (v/v) acetic acid, whereas bound dye was solubilized with 10 mM unbuffered TRIS (Avantor Performance Materials, Gliwice, Poland) solution. The entire procedure was performed using a BioTek EL-406 washing station (BioTek Instruments, USA). After additional 30 min, absorbance was read using a Biotek Hybrid H4 reader (BioTek Instruments, USA) at 540 nm wavelength. MTT assay was used alternatively for HL-60 cell line and in the experiment in which estrogens are added (specified in the table legend). Absorbance was measured using a Biotek Hybrid H4 reader at 570 nm wavelength for MTT assay.
(§4) Compounds at each concentration were tested in triplicate in a single experiment and each experiment was repeated at least three times independently.
(§5) Results of in vitro antiproliferative effects are shown in Table 3 and Table 4 and are presented as mean IC50 ± SD calculated using the Prolab-3 system based on Cheburator 0.4 software.
(§6) Statistical analysis: Unpaired t test. *p<0.05 as compared to appropriate cells not pretreated with estradiol. MTT assay was used for antiproliferative activity assessment.

Data set [7] concerns MCF-7. The data set is described as above. Format: cell-based, human. Conditions: 72 hours exposition; for IC50: Homo sapiens, MCF7, MTT. As to the method: as §3, §4, §5, §6
In data set [8] the test system is Caco-2. The data set is described as follows: Cell cycle and cell death analysis. Conditions: FIG. 1C. The class given is cell-based. As to the method:
(§7) Cell cycle and cell death analysis has been performed as previously described (Milczarek M et al. , 2015). Compounds were tested 5 times independently. Obtained results were analyzed using BD FACSDiva 6.2 software.

The subject of data set [9] is HT-29. The data set is described as follows: Cell cycle and cell death analysis. Format: cell-based, human. As to the method:
as §7

Converted amounts (≈) assume the structure as drawn.

T1 sequence (P07237 18-508, species assumed): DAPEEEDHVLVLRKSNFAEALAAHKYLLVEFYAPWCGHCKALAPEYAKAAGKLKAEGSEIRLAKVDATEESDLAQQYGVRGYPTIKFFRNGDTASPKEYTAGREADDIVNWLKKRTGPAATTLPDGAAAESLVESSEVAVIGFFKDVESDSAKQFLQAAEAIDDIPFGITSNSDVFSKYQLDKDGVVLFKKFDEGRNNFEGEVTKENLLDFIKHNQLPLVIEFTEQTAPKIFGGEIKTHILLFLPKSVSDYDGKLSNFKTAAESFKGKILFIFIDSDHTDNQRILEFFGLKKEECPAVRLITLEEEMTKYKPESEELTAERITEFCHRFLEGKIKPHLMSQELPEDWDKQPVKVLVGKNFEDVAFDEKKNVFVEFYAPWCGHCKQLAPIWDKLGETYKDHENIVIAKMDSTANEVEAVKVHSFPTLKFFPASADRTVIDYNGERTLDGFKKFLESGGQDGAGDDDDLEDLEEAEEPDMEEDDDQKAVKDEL

As to `COC(=O)C1CN1S(=O)(=O)c1ccccc1` (stereo not drawn) [Compound C-3251, Methyl 1-(benzenesulfonyl)aziridine-2-carboxylate], the EC50 at PDI A1 was determined as 6 µM. For the same compound, the “Caspase 3/7 activity, HT-29” value with HT-29 [1] is listed as “significantly increase caspase 3/7 activity”. In addition, the “Caspase 3/7 activity, Caco-2” value with Caco-2 [2] was “significantly increase caspase 3/7 activity”. Further, the IC50 in the data set on HT-29 [3] turned out to be 30.2 ± 4.7 mg/L (≈ 125 µM); in the data set with MDA-MB-231 [4] (hypoxia (<1% of oxygen), read-out: IC50 [µg/ml] MDA-MB-231 hypoxia), 26.5 ± 1.3 µg/mL (≈ 110 µM); in the data set with MDA-MB-231 [4] (normal (21% of oxygen), read-out: IC50 [µg/ml] MDA-MB-231 normal), 24 ± 6.4 µg/mL (≈ 99.5 µM); in the data set with MCF-7 [5], 7.9 ± 6.5 µg/mL (≈ 32.7 µM); in the data set with MDA-MB-231 [6] (200 nM estradiol, read-out: IC50 [µg/ml] MDA-MB-231 + estradiol), 29.7 ± 1.9 µg/mL; with MDA-MB-231 [6] (not pretreated with estradiol, read-out: IC50 [µg/ml] MDA-MB-231 normal) it was 26.6 ± 2.3 µg/mL (≈ 110 µM). The IC50 stood at 4 ± 0.2 µg/mL in the data set on MCF-7 [7] (200 nM estradiol, read-out: IC50 [µg/ml] MCF-7 + estradiol) and 3.9 ± 0.5 µg/mL (≈ 16.2 µM) in the data set on MCF-7 [7] (not pretreated with estradiol, read-out: IC50 [µg/ml] MCF-7 normal). The “Selectivity index (SI): IC50 of MCF-10A/ IC50 of MCF-7” value in the data set with MCF-7 [7] amounted to 6.62. For the same compound, in the data set on Caco-2 [8], the “Cell cycle distribution, CaCo-2” value is “increased the percentage of CaCo-2 cells in S cell cycle phase”. In the data set on HT-29 [9] (FIG. 1C), the “Cell cycle distribution, HT-29” value is “decreased HT-29 cells in G0/G1 and increased in G2/M phase”. For the same compound, the “Percentage of death cells, HT-29” value in the data set with HT-29 [9] (FIG. 1D) was “increased significantly the percentage of death HT-29 cells”.
